Values after ≈ are worked out from the molar mass of the structure shown.
Key:
Format in all cases: functional
[1] = tested on: Stenotrophomonas maltophilia; experiment: Antibacterial activity against Stenotrophomonas maltophilia obtained from complicated skin and skin structure infections by agar dilution method
Bacteroides fragilis = experiment: Antibacterial activity against Bacteroides fragilis obtained from complicated skin and skin structure infections by agar dilution method
Proteus penneri = experiment: Antibacterial activity against Proteus penneri obtained from complicated skin and skin structure infections by agar dilution method
[2] = Antibacterial activity against Streptococcus sp. 'group G' obtained from complicated skin and skin structure infections by agar dilution method
Enterobacter cloacae = experiment: Antibacterial activity against Enterobacter cloacae obtained from complicated skin and skin structure infections by agar dilution method
Veillonella = experiment: Antibacterial activity against Veillonella spp. obtained from complicated skin and skin structure infections by agar dilution method
Enterococcus faecium = experiment: Antibacterial activity against Enterococcus faecium obtained from complicated skin and skin structure infections by agar dilution method
Citrobacter braakii = experiment: Antibacterial activity against Citrobacter braakii obtained from complicated skin and skin structure infections by agar dilution method
Bacillus = experiment: Antibacterial activity against Bacillus spp. obtained from complicated skin and skin structure infections by agar dilution method
Citrobacter freundii = experiment: Antibacterial activity against Citrobacter freundii obtained from complicated skin and skin structure infections by agar dilution method
Enterococcus faecalis = experiment: Antibacterial activity against Enterococcus faecalis obtained from complicated skin and skin structure infections by agar dilution method
Serratia marcescens = experiment: Antibacterial activity against Serratia marcescens obtained from complicated skin and skin structure infections by agar dilution method
Enterobacter amnigenus = experiment: Antibacterial activity against Enterobacter amnigenus obtained from complicated skin and skin structure infections by agar dilution method; conditions: Lelliottia amnigena
Mammaliicoccus sciuri = experiment: Antibacterial activity against coagulase-negative Staphylococcus sciuri obtained from complicated skin and skin structure infections by agar dilution method
Staphylococcus capitis = experiment: Antibacterial activity against coagulase-negative Staphylococcus capitis obtained from complicated skin and skin structure infections by agar dilution method
Gemella = experiment: Antibacterial activity against Gemella spp. obtained from complicated skin and skin structure infections by agar dilution method
Salmonella = experiment: Antibacterial activity against Salmonella spp. obtained from complicated skin and skin structure infections by agar dilution method
[3] = tested on: Streptococcus constellatus; experiment: Antibacterial activity against Streptococcus constellatus obtained from complicated skin and skin structure infections by agar dilution method
Staphylococcus = experiment: Antibacterial activity against methicillin-susceptible, coagulase-negative Staphylococcus obtained from complicated skin and skin structure infections by agar dilution method
Staphylococcus aureus [4] = experiment: Antibacterial activity against methicillin resistant Staphylococcus aureus obtained from complicated skin and skin structure infections by agar dilution method
Staphylococcus aureus [5] = experiment: Antibacterial activity against methicillin susceptible Staphylococcus aureus obtained from complicated skin and skin structure infections by agar dilution method
Staphylococcus hominis = experiment: Antibacterial activity against coagulase-negative Staphylococcus hominis obtained from complicated skin and skin structure infections by agar dilution method
[6] = tested on: Staphylococcus saprophyticus; experiment: Antibacterial activity against coagulase-negative Staphylococcus saprophyticus obtained from complicated skin and skin structure infections by agar dilution method
Prevotella = experiment: Antibacterial activity against Prevotella spp. obtained from complicated skin and skin structure infections by agar dilution method
Aerococcus viridans = experiment: Antibacterial activity against Aerococcus viridans obtained from complicated skin and skin structure infections by agar dilution method
Klebsiella oxytoca = experiment: Antibacterial activity against Klebsiella oxytoca obtained from complicated skin and skin structure infections by agar dilution method
Pseudomonas fluorescens = experiment: Antibacterial activity against Pseudomonas fluorescens obtained from complicated skin and skin structure infections by agar dilution method
Acinetobacter baumannii = experiment: Antibacterial activity against Acinetobacter baumannii obtained from complicated skin and skin structure infections by agar dilution method
[7] = tested on: Staphylococcus intermedius; experiment: Antibacterial activity against Staphylococcus intermedius obtained from complicated skin and skin structure infections by agar dilution method
Streptococcus pyogenes = experiment: Antibacterial activity against Streptococcus pyogenes obtained from complicated skin and skin structure infections by agar dilution method
Micrococcus = experiment: Antibacterial activity against Micrococcus spp. obtained from complicated skin and skin structure infections by agar dilution method
Klebsiella aerogenes = experiment: Antibacterial activity against Enterobacter aerogenes obtained from complicated skin and skin structure infections by agar dilution method
Gemella morbillorum = experiment: Antibacterial activity against Gemella morbillorum obtained from complicated skin and skin structure infections […]
Proteus mirabilis = experiment: Antibacterial activity against Proteus mirabilis obtained from complicated skin and skin structure infections by agar dilution method
Morganella morganii = experiment: Antibacterial activity against Morganella morganii obtained from complicated skin and skin structure infections by agar dilution method
Providencia stuartii = experiment: Antibacterial activity against Providencia stuartii obtained from complicated skin and skin structure infections by agar dilution method
Staphylococcus aureus [8] = experiment: Antibacterial activity against Staphylococcus aureus obtained from complicated skin and skin structure infections by agar dilution method
Lactococcus lactis = experiment: Antibacterial activity against Lactococcus lactis obtained from complicated skin and skin structure infections by agar dilution method
[9] = tested on: Staphylococcus epidermidis; experiment: Antibacterial activity against coagulase-negative Staphylococcus epidermidis obtained from complicated skin and skin structure infections by agar dilution method
Streptococcus mitis = experiment: Antibacterial activity against Streptococcus mitis obtained from complicated skin and skin structure infections by agar dilution method
[10] = tested on: Staphylococcus lugdunensis; experiment: Antibacterial activity against coagulase-negative Staphylococcus lugdunensis obtained from complicated skin and skin structure infections by agar dilution method
Klebsiella pneumoniae = experiment: Antibacterial activity against Klebsiella pneumoniae obtained from complicated skin and skin structure infections by agar dilution method
[11] = Antibacterial activity against Streptococcus sp. 'group C' obtained from complicated skin and skin structure infections by agar dilution method
Streptococcus agalactiae = experiment: Antibacterial activity against Streptococcus agalactiae obtained from complicated skin and skin structure infections by agar dilution method
[12] = tested on: Staphylococcus haemolyticus; experiment: Antibacterial activity against coagulase-negative Staphylococcus haemolyticus obtained from complicated skin and skin structure infections by agar dilution method
Staphylococcus warneri = experiment: Antibacterial activity against coagulase-negative Staphylococcus warneri obtained from complicated skin and skin structure infections by agar dilution method
Staphylococcus cohnii = experiment: Antibacterial activity against coagulase-negative Staphylococcus cohnii obtained from complicated skin and skin structure infections by agar dilution method
Escherichia coli = experiment: Antibacterial activity against Escherichia coli obtained from complicated skin and skin structure infections by agar dilution method
Pseudomonas aeruginosa = experiment: Antibacterial activity against Pseudomonas aeruginosa obtained from complicated skin and skin structure infections by agar dilution method
[13] = tested on: Staphylococcus lugdunensis; experiment: Antibacterial activity against methicillin-resistant, oxacillin-susceptible, coagulase-negative, mecA-positive Staphylococcus lugdunensis obtained from complicated skin and skin structure infections by agar dilution method
Proteus vulgaris = experiment: Antibacterial activity against Proteus vulgaris obtained from complicated skin and skin structure infections by agar dilution method

Nc1nc(/C(=N/O)C(=O)N[C@@H]2C(=O)N3C(C(=O)O)=C(/C=C4\CCN([C@@H]5CCNC5)C4=O)CS[C@H]23)ns1 [CEFTOBIPROLE]
MIC50 [1]: > 64 µg/mL | MIC90 [1]: > 64 µg/mL | MIC (Bacteroides fragilis): ≤ 0.03 µg/mL | MIC50 (Proteus penneri): 0.06 µg/mL (≈ 0.112 µM) | MIC90 (Proteus penneri): 32 µg/mL (≈ 59.9 µM) | MIC50 [2]: 0.008 µg/mL (≈ 0.015 µM) | MIC90 [2]: 0.06 µg/mL (≈ 0.112 µM) | MIC50 (Enterobacter cloacae): 0.06 µg/mL (≈ 0.112 µM) | MIC90 (Enterobacter cloacae): > 64 µg/mL | MIC (Veillonella): ≤ 0.03 µg/mL | MIC50 (Enterococcus faecium): > 64 µg/mL | MIC50 (Citrobacter braakii): 0.06 µg/mL (≈ 0.112 µM) | MIC90 (Citrobacter braakii): 32 µg/mL (≈ 59.9 µM) | MIC50 (Bacillus): 0.12 µg/mL (≈ 0.224 µM) | MIC90 (Bacillus): 0.25 µg/mL (≈ 0.468 µM) | MIC50 (Citrobacter freundii): 0.06 µg/mL (≈ 0.112 µM) | MIC90 (Citrobacter freundii): 32 µg/mL (≈ 59.9 µM) | MIC50 (Enterococcus faecalis): 0.5 µg/mL (≈ 0.935 µM) | MIC90 (Enterococcus faecalis): 0.5 µg/mL (≈ 0.935 µM) | MIC50 (Serratia marcescens): 0.06 µg/mL (≈ 0.112 µM) | MIC90 (Serratia marcescens): 32 µg/mL (≈ 59.9 µM) | MIC50 (Enterobacter amnigenus): 0.06 µg/mL (≈ 0.112 µM) | MIC90 (Enterobacter amnigenus): 32 µg/mL (≈ 59.9 µM) | MIC50 (Mammaliicoccus sciuri): 0.5 µg/mL (≈ 0.935 µM) | MIC90 (Mammaliicoccus sciuri): 1 µg/mL (≈ 1.87 µM) | MIC50 (Staphylococcus capitis): 0.5 µg/mL (≈ 0.935 µM) | MIC90 (Staphylococcus capitis): 1 µg/mL (≈ 1.87 µM) | MIC50 (Gemella): 0.12 µg/mL (≈ 0.224 µM) | MIC90 (Gemella): 0.25 µg/mL (≈ 0.468 µM) | MIC50 (Salmonella): 0.06 µg/mL (≈ 0.112 µM) | MIC90 (Salmonella): 32 µg/mL (≈ 59.9 µM) | MIC50 [3]: 0.06 µg/mL (≈ 0.112 µM) | MIC90 [3]: 0.12 µg/mL (≈ 0.224 µM) | MIC50 (Staphylococcus): 0.25 µg/mL (≈ 0.468 µM) | MIC90 (Staphylococcus): 0.5 µg/mL (≈ 0.935 µM) | MIC50 (Staphylococcus aureus [4]): 0.5 µg/mL (≈ 0.935 µM) | MIC90 (Staphylococcus aureus [4]): 2 µg/mL (≈ 3.74 µM) | MIC50 (Staphylococcus aureus [5]): 0.25 µg/mL (≈ 0.468 µM) | MIC90 (Staphylococcus aureus [5]): 0.5 µg/mL (≈ 0.935 µM) | MIC50 (Staphylococcus hominis): 0.5 µg/mL (≈ 0.935 µM) | MIC90 (Staphylococcus hominis): 1 µg/mL (≈ 1.87 µM) | MIC50 [6]: 0.5 µg/mL (≈ 0.935 µM) | MIC90 [6]: 1 µg/mL (≈ 1.87 µM) | MIC (Prevotella): ≤ 0.03 µg/mL | MIC50 (Aerococcus viridans): 0.12 µg/mL (≈ 0.224 µM) | MIC90 (Aerococcus viridans): 0.25 µg/mL (≈ 0.468 µM) | MIC50 (Klebsiella oxytoca): 0.06 µg/mL (≈ 0.112 µM) | MIC90 (Klebsiella oxytoca): 32 µg/mL (≈ 59.9 µM) | MIC50 (Pseudomonas fluorescens): > 64 µg/mL | MIC90 (Pseudomonas fluorescens): > 64 µg/mL | MIC50 (Acinetobacter baumannii): > 64 µg/mL | MIC90 (Acinetobacter baumannii): > 64 µg/mL | MIC50 [7]: 0.06 µg/mL (≈ 0.112 µM) | MIC90 [7]: 0.12 µg/mL (≈ 0.224 µM) | MIC (Streptococcus pyogenes): 0.008 µg/mL (≈ 0.015 µM) | MIC50 (Streptococcus pyogenes): 0.008 µg/mL (≈ 0.015 µM) | MIC90 (Streptococcus pyogenes): 0.015 µg/mL (≈ 0.0281 µM) | MIC50 (Micrococcus): 0.12 µg/mL (≈ 0.224 µM) | MIC90 (Micrococcus): 0.25 µg/mL (≈ 0.468 µM) | MIC50 (Klebsiella aerogenes): 0.06 µg/mL (≈ 0.112 µM) | MIC90 (Klebsiella aerogenes): 32 µg/mL (≈ 59.9 µM) | MIC50 (Gemella morbillorum): 0.12 µg/mL (≈ 0.224 µM) | MIC90 (Gemella morbillorum): 0.25 µg/mL (≈ 0.468 µM) | MIC50 (Proteus mirabilis): 0.03 µg/mL (≈ 0.0561 µM) | MIC90 (Proteus mirabilis): 0.12 µg/mL (≈ 0.224 µM) | MIC50 (Morganella morganii): 0.12 µg/mL (≈ 0.224 µM) | MIC90 (Morganella morganii): 64 µg/mL (≈ 120 µM) | MIC50 (Providencia stuartii): 0.06 µg/mL (≈ 0.112 µM) | MIC90 (Providencia stuartii): 32 µg/mL (≈ 59.9 µM) | MIC50 (Staphylococcus aureus [8]): 0.5 µg/mL (≈ 0.935 µM) | MIC90 (Staphylococcus aureus [8]): 1 µg/mL (≈ 1.87 µM) | MIC50 (Lactococcus lactis): 0.12 µg/mL (≈ 0.224 µM) | MIC90 (Lactococcus lactis): 0.25 µg/mL (≈ 0.468 µM) | MIC50 [9]: 0.5 µg/mL (≈ 0.935 µM) | MIC90 [9]: 1 µg/mL (≈ 1.87 µM) | MIC50 (Streptococcus mitis): 0.06 µg/mL (≈ 0.112 µM) | MIC90 (Streptococcus mitis): 0.12 µg/mL (≈ 0.224 µM) | MIC50 [10]: 0.5 µg/mL (≈ 0.935 µM) | MIC90 [10]: 1 µg/mL (≈ 1.87 µM) | MIC50 (Klebsiella pneumoniae): 0.06 µg/mL (≈ 0.112 µM) | MIC90 (Klebsiella pneumoniae): 32 µg/mL (≈ 59.9 µM) | MIC50 [11]: 0.06 µg/mL (≈ 0.112 µM) | MIC90 [11]: 0.12 µg/mL (≈ 0.224 µM) | MIC50 (Streptococcus agalactiae): 0.06 µg/mL (≈ 0.112 µM) | MIC90 (Streptococcus agalactiae): 0.12 µg/mL (≈ 0.224 µM) | MIC50 [12]: 0.5 µg/mL (≈ 0.935 µM) | MIC90 [12]: 1 µg/mL (≈ 1.87 µM) | MIC50 (Staphylococcus warneri): 0.5 µg/mL (≈ 0.935 µM) | MIC90 (Staphylococcus warneri): 1 µg/mL (≈ 1.87 µM) | MIC50 (Staphylococcus cohnii): 0.5 µg/mL (≈ 0.935 µM) | MIC90 (Staphylococcus cohnii): 1 µg/mL (≈ 1.87 µM) | MIC50 (Escherichia coli): 0.06 µg/mL (≈ 0.112 µM) | MIC90 (Escherichia coli): 0.12 µg/mL (≈ 0.224 µM) | MIC50 (Pseudomonas aeruginosa): 4 µg/mL (≈ 7.48 µM) | MIC90 (Pseudomonas aeruginosa): > 64 µg/mL | MIC50 [13]: 0.5 µg/mL (≈ 0.935 µM) | MIC90 [13]: 2 µg/mL (≈ 3.74 µM) | MIC50 (Proteus vulgaris): 0.06 µg/mL (≈ 0.112 µM) | MIC90 (Proteus vulgaris): 32 µg/mL (≈ 59.9 µM)

From ChEMBL document CHEMBL1275492, “In vitro activity of ceftobiprole against pathogens from two phase 3 clinical trials of complicated skin and skin structure infections” (2008)
